{"source": "paper PMC10216263", "about": "“Favorable Preclinical Pharmacological Profile of a Novel Antimalarial Pyrrolizidinylmethyl Derivative of 4-amino-7-chloroquinoline with Potent In Vitro and In Vivo Activities” (Biomolecules, 2023)", "key": {"P. falciparum K1 (CQ-R)": {"test_system": "P. falciparum K1 (CQ-R)", "experiment": "In vitro antimalarial activity, [3H]-hypoxanthine incorporation (LSHTM)", "assay_type": "cell-based", "details": "Plasmodium falciparum, K1; 72 h, [3H]-hypoxanthine incorporation, mean of 3 experiments; read-out: P. falciparum IC50 nM, K1 (CQ-R)"}, "rat hepatocytes": {"test_system": "rat hepatocytes", "experiment": "Metabolic profiling in hepatocytes", "assay_type": "in vitro ADME", "details": "rat hepatocytes, MG3 10 µM, 1 h incubation, semi-quantitative", "description": "(§1) For metabolite profiling, MG3.2HCl (10 µM) was incubated with mouse, rat, dog, monkey, and human hepatocytes (300,000 cells/mL for the mouse and 1 × 10^6 cells/mL for the other species) in Leibovitz L-15 medium, at 37 °C. Incubations were performed in a 12-well plate under shaking. Aliquots of the incubation samples, together with a control in medium alone, were taken at t = 0 and 60 min; the metabolism was stopped by the addition of an equal volume of chilled ACN and the samples were centrifuged at 1100 rpm for 20 min. The supernatant was stored at −20 °C until analysis. The analyses were performed using an HPLC system (Agilent) online with a photodiode array (PDA) detector (Agilent) coupled to a Mass Spectrometer Q-TOF 2 (Waters), ESI positive, following the method reported in Table 1.\n(§2) The software utilized for searching the accurate masses of possible metabolites was Metabolynx, version 4.1 (Waters Corporation, Milford, MA, USA), with a mass window of 40 mDa. Samples were then re-run in MS/MS mode by selecting the masses of possible metabolites found. The collision energy used to obtain MS/MS data was 25 eV. The proposed identity of metabolites was based on their accurate mass (using LockSpray correction), with an accuracy of +/−5 mDa. MS/MS analyses were performed to verify that peaks were drug-related and to obtain structural information from the fragment ions formed. The structures of some metabolites are proposed. The approximate relative amounts of parent and metabolites were determined from the absolute areas taken from a selected ion chromatogram at the metabolite masses with a mass window of 0.04 Da."}, "human hepatocytes": {"test_system": "human hepatocytes", "experiment": "Metabolic profiling in hepatocytes", "assay_type": "in vitro ADME", "details": "human hepatocytes, MG3 10 µM, 1 h incubation, semi-quantitative", "description": "as §1, §2"}, "[1]": {"test_system": "P. falciparum V1-S (CQ-R)", "experiment": "In vitro antimalarial activity, [3H]-hypoxanthine incorporation (LSHTM)", "assay_type": "cell-based", "details": "Plasmodium falciparum; 72 h, [3H]-hypoxanthine incorporation, mean of 3 experiments; read-out: P. falciparum IC50 nM, V1-S (CQ-R)"}, "[2]": {"details": "CD1, mouse, in vivo, po, 10 mg/kg"}, "[3]": {"test_system": "Salmonella typhimurium TA100", "experiment": "Bacterial Reverse Mutation Assay", "details": "TA 100, with metabolic activation", "quoted_text": "using the preincubation method (30 min, 37°C) with and without phenobarbital-5,6-benzoflavone induced\nMG3 was dissolved in distilled water (H2O) at\nthe maximum concentration of 40 mg/mL and tested in a preliminary range-finding test in all strains of\nmetabolic activation to determine the toxicity of the compound."}, "[4]": {"test_system": "all the Pf strains tested", "experiment": "In vitro antimalarial activity, summary over all Pf strains tested", "assay_type": "cell-based, P. falciparum", "details": "for IC50: Plasmodium falciparum", "description": "The strains D10 and 3D7 (CQ-Sensitive), and V1-S (CQ, pyrimethamine and cycloguanil resistant), K1 (CQ and PYR resistant), W2 and FCR3 (CQ-Resistant), TM90C2A (CQ, MQ, PYR and ATQ resistant) and IPC 5202 (MR4-1240, artemisinin-resistant, K13 mutation, and R539T) of Pf were cultured in vitro as described by Trager and Jensen with minor modifications. Briefly, parasites were maintained at 5% hematocrit (human type A-positive red blood cells) in RPMI 1640 (EuroClone, S.p.A. Milan, Italy) medium with the addition of 10% heat inactivate human serum or 1% AlbuMax (In vitrogen, Milan, Italy), 20 mM Hepes and 2 mM glutamine (Euroclone), at 37 °C in a standard gas mixture consisting of 1–3% O2, 5% CO2, and 92–94% N2.\nCompounds were dissolved in either water or DMSO and then diluted with medium to achieve the required concentrations (final non-toxic DMSO concentration <1%). Asynchronous cultures of Pf with parasitaemia of 1–1.5% and 1% final hematocrit were aliquoted into 96-well flat-bottom microplates (Corning, Glendale, AZ, USA) with serial dilutions of test compounds and incubated for 72 h at 37 °C. Parasite growth was determined spectrophotometrically (OD650) by measuring the activity of the parasite lactate dehydrogenase (pLDH) according to a modified version of the method of Makler in control and drug-treated cultures."}, "[5]": {"test_system": "P. falciparum FCR3 (CQ-R)", "experiment": "In vitro antimalarial activity, [3H]-hypoxanthine incorporation (LSHTM)", "assay_type": "cell-based", "details": "Plasmodium falciparum, FCR3; 72 h, [3H]-hypoxanthine incorporation, mean of 3 experiments; read-out: P. falciparum IC50 nM, FCR3 (CQ-R)"}, "P. falciparum W2 (CQ-R)": {"test_system": "P. falciparum W2 (CQ-R)", "parameters": "method as in PMID 18538567", "details": "72 h incubation, pLDH method, mean of 3 experiments; cited from earlier work"}, "[6]": {"test_system": "beta-hematin (malaria pigment) formation", "parameters": "method as in PMID 18538567", "details": "in vitro BHIA; cited from earlier work"}, "P. berghei ANKA": {"test_system": "P. berghei ANKA", "experiment": "Four-day suppressive Peters' test, oral", "assay_type": "in vivo, P. berghei in CD1 mice", "details": "once a day for 4 days, parasitemia day 4, CD1 mice", "description": "Groups of five CD1 mice were inoculated i.v., with 4 × 10^6 infected erythrocytes/mice. Compounds, dissolved in standard suspending formula (SSV) (0.5% sodium carboxymethylcellulose, 0.5% benzyl alcohol, 0.4% Tween 80, and 0.9% NaCl), were administered once a day for 4 days via oral gavage, starting two hours post-infection. […] Parasitemia was evaluated using microscopic examination of Giemsa-stained blood films taken on day four, processed using MICROSOFT® EXCEL spreadsheets (Microsoft Corp., Redmond, WA, USA), and expressed as percentages of inhibition from the arithmetic mean parasitemia of each group in relation to the untreated group. ED50 and ED90 values were calculated using GraphPad Prism 6 (GraphPad Software Inc., La Jolla, CA, USA)."}}, "note": "Like-named read-outs stand apart in the source and are kept apart here."}
{"smiles": "Clc1ccc2c(NCC34CCCN3CCC4)ccnc2c1", "note": "[MG3, 7-Chloro-N-((hexahydro-1H-pyrrolizin-7a-yl)methyl)quinolin-4-amine]", "values": [{"measurement": "IC50", "setting": "P. falciparum K1 (CQ-R)", "value": 21.2, "unit": "nM"}, {"measurement": "% of Total Drug Related Material", "setting": "rat hepatocytes", "value": 53, "unit": "%"}, {"measurement": "% of Total Drug Related Material", "setting": "human hepatocytes", "value": 82, "unit": "%"}, {"measurement": "IC50", "setting": "[1]", "value": 25.7, "unit": "nM"}, {"measurement": "AUClast", "setting": "[2]", "value": "41,067 min*ng/mL"}, {"measurement": "fold increase value (ratio treated/solvent revertant numbers)", "setting": "[3]; I° Exp., 62.5 µg/plate", "value": 0.6}, {"measurement": "fold increase value (ratio treated/solvent revertant numbers)", "setting": "[3]; I° Exp., 125 µg/plate", "value": 0.6}, {"measurement": "fold increase value (ratio treated/solvent revertant numbers)", "setting": "[3]; I° Exp., 250 µg/plate", "value": 0.8}, {"measurement": "fold increase value (ratio treated/solvent revertant numbers)", "setting": "[3]; I° Exp., 500 µg/plate", "value": 0.8}, {"measurement": "fold increase value (ratio treated/solvent revertant numbers)", "setting": "[3]; I° Exp., 1000 µg/plate", "value": 0.8}, {"measurement": "fold increase value (ratio treated/solvent revertant numbers)", "setting": "[3]; Range finding, 1.95 µg/plate", "value": 1.1}, {"measurement": "fold increase value (ratio treated/solvent revertant numbers)", "setting": "[3]; Range finding, 3.9 µg/plate", "value": 1.1}, {"measurement": "fold increase value (ratio treated/solvent revertant numbers)", "setting": "[3]; Range finding, 7.81 µg/plate", "value": 1.2}, {"measurement": "fold increase value (ratio treated/solvent revertant numbers)", "setting": "[3]; Range finding, 15.63 µg/plate", "value": 0.9}, {"measurement": "fold increase value (ratio treated/solvent revertant numbers)", "setting": "[3]; Range finding, 31.25 µg/plate", "value": 1.0}, {"measurement": "fold increase value (ratio treated/solvent revertant numbers)", "setting": "[3]; Range finding, 62.5 µg/plate", "value": 1.0}, {"measurement": "fold increase value (ratio treated/solvent revertant numbers)", "setting": "[3]; Range finding, 125 µg/plate", "value": 1.0}, {"measurement": "fold increase value (ratio treated/solvent revertant numbers)", "setting": "[3]; Range finding, 250 µg/plate", "value": 1.0}, {"measurement": "fold increase value (ratio treated/solvent revertant numbers)", "setting": "[3]; Range finding, 500 µg/plate", "value": 1.2}, {"measurement": "fold increase value (ratio treated/solvent revertant numbers)", "setting": "[3]; Range finding, 1000 µg/plate", "value": 0.7}, {"measurement": "activity fold lower than that of ASN or DHA", "setting": "[4]; P. falciparum strains", "value": "5–6 fold"}, {"measurement": "IC50", "setting": "[4]; read-out: mean IC50 against all the Pf strains tested", "value": 0.0209, "unit": "µM"}, {"measurement": "IC50", "setting": "[4]; range over strains, read-out: IC50 range against all the Pf strains tested", "value": "0.012 to 0.03", "unit": "µM"}, {"measurement": "IC50", "setting": "[5]", "value": 13.2, "unit": "nM"}, {"measurement": "IC50", "setting": "P. falciparum W2 (CQ-R)", "value": 28.9, "unit": "nM"}, {"measurement": "inhibition of beta-hematin formation", "setting": "[6]", "value": "able to inhibit the formation of beta-hematin"}, {"measurement": "ED50", "setting": "P. berghei ANKA; Plasmodium berghei, 96 h, read-out: ED50 (95% CI) Mean", "value": 5.22, "unit": "mg/kg"}, {"measurement": "ED90 (95% CI) Mean", "setting": "P. berghei ANKA", "value": "7.55 (6.38–8.72) mg/kg"}]}
